In ChEMBL document CHEMBL1201862, “PubChem BioAssay data set” (2004):
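Cultured in 96-well plates, cells were exposed to test compound for 48 hours across five concentrations. The concentration for 50% growth inhibition is given as GI50.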 Activity calls are given as the source filed them. Cut-off read from the data, not from the text of the source: active = GI50 up to about 1.1 µM and inactive = higher.

Legend:
Experiment in all cases: NCI tumour cell line growth inhibition, 48 h
COLO 205 = tested on: COLO 205
M14 = tested on: M14
K562 = tested on: K562
OVCAR-8 = tested on: OVCAR-8
MOLT-4 = tested on: MOLT-4
UACC-62 = tested on: UACC-62
TK-10 = tested on: TK-10
SK-MEL-5 = tested on: SK-MEL-5
NCI-H23 = tested on: NCI-H23
SK-MEL-28 = tested on: SK-MEL-28
OVCAR-5 = tested on: OVCAR-5
HCT-15 = tested on: HCT-15
SK-OV-3 = tested on: SK-OV-3
HT-29 = tested on: HT-29
UACC-257 = tested on: UACC-257
HL-60 = tested on: HL-60
NCI-H226 = tested on: NCI-H226

Structure (SMILES) | GI50 (COLO 205) | GI50 (M14) | GI50 (K562) | GI50 (OVCAR-8) | GI50 (MOLT-4) | GI50 (UACC-62) | GI50 (TK-10) | GI50 (SK-MEL-5) | GI50 (NCI-H23) | GI50 (SK-MEL-28) | GI50 (OVCAR-5) | GI50 (HCT-15) | GI50 (SK-OV-3) | GI50 (HT-29) | GI50 (UACC-257) | GI50 (HL-60) | GI50 (NCI-H226)
CCCCSN1C(=O)c2ccccc2C1=S | 62.4 µM (inactive) | 41.6 µM (inactive) | 22.9 µM (inactive) | 60.4 µM (inactive) | 18.5 µM (inactive) | 55 µM (inactive) | > 100 µM (inactive) | 60.5 µM (inactive) | > 100 µM (inactive) | > 100 µM (inactive) | > 100 µM (inactive) | > 100 µM | > 100 µM (inactive) | 29.4 µM (inactive) | 57.3 µM (inactive) | 21.4 µM (inactive) | –
CN(C)c1ccc(Cc2cc(C(C)(C)C)cc(C(C)(C)C)c2O)cc1 | – | 18.1 µM (inactive) | 11.7 µM (inactive) | 20 µM (inactive) | 14.5 µM (inactive) | 14.7 µM (inactive) | 13.2 µM (inactive) | 15.6 µM (inactive) | 16.1 µM (inactive) | 20.3 µM (inactive) | 6.27 µM (inactive) | 15.8 µM | 29.3 µM (inactive) | 16.1 µM (inactive) | 15.6 µM (inactive) | 21 µM (inactive) | –
c1ccc([B-]23Oc4ccccc4[NH+]2c2ccccc2O3)cc1 (stereo not drawn) | 49 µM (inactive) | > 100 µM (inactive) | 36.2 µM (inactive) | 57.7 µM (inactive) | 25.8 µM (inactive) | > 100 µM (inactive) | 47.2 µM (inactive) | > 100 µM (inactive) | > 100 µM (inactive) | > 100 µM (inactive) | > 100 µM (inactive) | – | > 100 µM (inactive) | > 100 µM (inactive) | > 100 µM (inactive) | 17.5 µM (inactive) | > 100 µM (inactive)
CC1(C)O[C@H]2[C@H](O)C[C@](O)(CO)C[C@H]2O1 | > 100 µM (inactive) | > 100 µM (inactive) | > 100 µM (inactive) | > 100 µM (inactive) | > 100 µM (inactive) | > 100 µM (inactive) | > 100 µM (inactive) | > 100 µM (inactive) | > 100 µM (inactive) | > 100 µM (inactive) | > 100 µM (inactive) | > 100 µM | > 100 µM (inactive) | > 100 µM (inactive) | > 100 µM (inactive) | – | > 100 µM (inactive)
O=C1[C@@H](c2ccc(Cl)cc2)[C@H]2CC=C[C@H]2N1O | > 100 µM (inactive) | > 100 µM (inactive) | > 100 µM (inactive) | > 100 µM (inactive) | 66.1 µM (inactive) | > 100 µM (inactive) | > 100 µM (inactive) | > 100 µM (inactive) | > 100 µM (inactive) | > 100 µM (inactive) | – | 91.4 µM | > 100 µM (inactive) | > 100 µM (inactive) | > 100 µM (inactive) | > 100 µM (inactive) | > 100 µM (inactive)
CC(C)CC(=O)N1CCN(C(=O)CC(C)C)c2ccccc21 | > 100 µM (inactive) | – | > 100 µM (inactive) | > 100 µM (inactive) | > 100 µM (inactive) | – | > 100 µM (inactive) | – | > 100 µM (inactive) | > 100 µM (inactive) | > 100 µM (inactive) | – | > 100 µM (inactive) | > 100 µM (inactive) | > 100 µM (inactive) | > 100 µM (inactive) | –
ON=C1CCC(c2ccccc2)CC1 (stereo not drawn) | > 100 µM (inactive) | > 100 µM (inactive) | > 100 µM (inactive) | > 100 µM (inactive) | – | > 100 µM (inactive) | > 100 µM (inactive) | > 100 µM (inactive) | > 100 µM (inactive) | > 100 µM (inactive) | > 100 µM (inactive) | > 100 µM | > 100 µM (inactive) | > 100 µM (inactive) | > 100 µM (inactive) | > 100 µM (inactive) | > 100 µM (inactive)
C=CCOCCCCC(C(C)=O)C(=O)OC (stereo not drawn) | > 100 µM (inactive) | > 100 µM (inactive) | > 100 µM (inactive) | > 100 µM (inactive) | > 100 µM (inactive) | > 100 µM (inactive) | > 100 µM (inactive) | > 100 µM (inactive) | > 100 µM (inactive) | > 100 µM (inactive) | > 100 µM (inactive) | > 100 µM | > 100 µM (inactive) | > 100 µM (inactive) | > 100 µM (inactive) | > 100 µM (inactive) | > 100 µM (inactive)
CC1=C2C(c3ccccc3)(c3ccccc3)C3C=CC2(C=N3)N(C(=O)NC2CCCCC2)C1=O (stereo not drawn) | 15.9 µM (inactive) | 17.5 µM (inactive) | 17.5 µM (inactive) | 17.9 µM (inactive) | 17.4 µM (inactive) | 18.7 µM (inactive) | – | 16.8 µM (inactive) | 18.4 µM (inactive) | 16.7 µM (inactive) | 17.7 µM (inactive) | 16.4 µM | 28.7 µM (inactive) | – | 17.1 µM (inactive) | 14.7 µM (inactive) | –
